Laboratory results: ChEMBL document CHEMBL1141406, “Design, synthesis, and evaluation of naphthalene-sulfonamide antagonists of human CCR8” (J Med Chem, 2007)
One block for each compound: values may come before it.

Columns and labels:
[1] = molecular target: T1, C-C chemokine receptor type 8 (Homo sapiens, UniProt P51685); assay: Antagonist activity against human CCR8 expressed in CHO/Galpha16 cells assessed as inhibition of CCL1-induced increase of intracellular calcium by FLIPR assay; format: functional, cell-based
[2] = molecular target: T1, C-C chemokine receptor type 8; assay: Binding affinity to human CCR8 expressed in L1.2 cells by FMAT assay; format: cell-based
[3] = Apparent permeability from apical to basolateral side of Caco-2 cells; format: ADME, cell-based; settings: human
[4] = Intrinsic clearance in liver microsomes; settings: human
[5] = Ratio of apparent permeability from basolateral to apical over apical to basolateral in Caco-2 cells; settings: human, read-out: Selectivity ratio
[6] = Apparent permeability from basolateral to apical side of Caco-2 cells; format: ADME, cell-based; settings: human
[7] = Stability in mouse plasma; format: ADME, cell-free
[8] = molecular target: Sodium-dependent serotonin transporter (Rattus norvegicus) (UniProt P31652); assay: Inhibition of rat serotonin transporter at 10 uM
[9] = molecular target: T2, 5-hydroxytryptamine receptor 1A (Homo sapiens) (UniProt P08908); assay: Inhibition of human recombinant 5HT1A receptor at 10 uM
T2 sequence (whole entry): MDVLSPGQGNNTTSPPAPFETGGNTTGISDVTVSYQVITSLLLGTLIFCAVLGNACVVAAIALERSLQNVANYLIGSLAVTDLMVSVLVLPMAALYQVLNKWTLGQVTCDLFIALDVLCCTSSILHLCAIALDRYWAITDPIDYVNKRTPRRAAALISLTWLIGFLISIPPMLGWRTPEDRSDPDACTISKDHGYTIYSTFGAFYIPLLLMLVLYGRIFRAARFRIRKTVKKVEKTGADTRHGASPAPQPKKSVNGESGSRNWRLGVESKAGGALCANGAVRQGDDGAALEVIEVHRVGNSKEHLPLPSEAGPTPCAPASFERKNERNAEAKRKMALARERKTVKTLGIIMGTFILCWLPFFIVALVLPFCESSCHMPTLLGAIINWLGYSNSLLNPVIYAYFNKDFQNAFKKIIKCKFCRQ

[10] = Volume of distribution of steady state in rat at 10 mg/kg, po and 1 mg/kg, iv; format: ADME, organism-based; settings: in vivo, read-out: Vss
[11] = molecular target: Beta-2 adrenergic receptor (Homo sapiens) (UniProt P07550); assay: Inhibition of human recombinant adrenergic beta 2 receptor at 10 uM
Rattus norvegicus [12] = species: Rattus norvegicus; assay: Inhibition of rat calcium channel L type at dihydropyridine site at 10 uM
[13] = Bioavailability in dog at 10 mg/kg, po and 1 mg/kg, iv; format: ADME, organism-based, Canis lupus familiaris; settings: in vivo
[14] = molecular target: Histamine H2 receptor (Rattus norvegicus) (UniProt P25102); assay: Inhibition of rat histamine H2 receptor at 10 uM
Cytochrome P450 3A4 = Cytochrome P450 3A4 (Homo sapiens, UniProt P08684); assay: Inhibition of CYP3A4; format: ADME
[15] = molecular target: Muscarinic acetylcholine receptor (Homo sapiens) (UniProt P20309+P08173+P11229+P08172+P08912); assay: Inhibition of peripheral non-selective guinea pig muscarinic receptor at 10 uM; format: protein assay; settings: Cavia porcellus, target entry is the homologue from another species
[16] = molecular target: 5-hydroxytryptamine receptor 2A (Homo sapiens) (UniProt P28223); assay: Inhibition of human 5HT2A receptor at 10 uM
[17] = Stability in dog at 10 mg/kg, po and 1 mg/kg, iv; format: ADME, organism-based, Canis lupus familiaris; settings: in vivo
[18] = molecular target: Adrenergic receptor alpha-1 (Homo sapiens) (UniProt P35348+P25100+P35368); assay: Inhibition of non selective adrenergic alpha-1 receptor at 10 uM; format: protein assay
[19] = molecular target: T3, Cholecystokinin receptor type A (Rattus norvegicus) (UniProt P30551); assay: Inhibition of rat CCKA at 10 uM
T3 sequence (whole entry): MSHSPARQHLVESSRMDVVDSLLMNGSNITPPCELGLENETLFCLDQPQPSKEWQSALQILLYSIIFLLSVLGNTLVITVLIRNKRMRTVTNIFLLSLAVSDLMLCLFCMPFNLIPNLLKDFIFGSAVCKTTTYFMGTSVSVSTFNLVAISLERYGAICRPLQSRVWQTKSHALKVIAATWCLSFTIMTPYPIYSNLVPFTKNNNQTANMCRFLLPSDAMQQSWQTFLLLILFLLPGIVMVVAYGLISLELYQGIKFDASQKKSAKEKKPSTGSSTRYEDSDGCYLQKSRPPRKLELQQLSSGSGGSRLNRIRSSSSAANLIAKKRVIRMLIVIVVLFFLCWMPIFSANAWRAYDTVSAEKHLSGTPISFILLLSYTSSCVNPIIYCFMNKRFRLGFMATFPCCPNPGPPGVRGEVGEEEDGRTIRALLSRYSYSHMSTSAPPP

[20] = molecular target: Beta-1 adrenergic receptor (Homo sapiens) (UniProt P08588); assay: Inhibition of human adrenergic beta 1 receptor at 10 uM
[21] = Volume of distribution of steady state in dog at 10 mg/kg, po and 1 mg/kg, iv; format: ADME, organism-based, Canis lupus familiaris; settings: in vivo, read-out: Vss
[22] = molecular target: Voltage-gated inwardly rectifying potassium channel KCNH2 (Homo sapiens, UniProt Q12809); assay: Binding affinity to hERG expressed in HEK293 cells; format: cell-based
[23] = molecular target: Sodium-dependent dopamine transporter (Rattus norvegicus) (UniProt P23977); assay: Inhibition of rat dopamine transporter at 10 uM
Rattus norvegicus [24] = species: Rattus norvegicus; assay: Inhibition of rat non-selective opiate receptor at 10 uM
[25] = molecular target: 5-hydroxytryptamine receptor 1B (Homo sapiens) (UniProt P28222); assay: Inhibition of 5HT1B receptor at 10 uM
[26] = molecular target: D(1A) dopamine receptor (Homo sapiens) (UniProt P21728); assay: Inhibition of human recombinant dopamine D1 receptor at 10 uM
[27] = Clearance in dog at 10 mg/kg, po and 1 mg/kg, iv; format: ADME, organism-based, Canis lupus familiaris; settings: in vivo
[28] = Stability in rat at 10 mg/kg, po and 1 mg/kg, iv; format: ADME, organism-based; settings: in vivo
[29] = Bioavailability in rat at 10 mg/kg, po and 1 mg/kg, iv; format: ADME, organism-based; settings: in vivo
Rattus norvegicus [30] = species: Rattus norvegicus; assay: Inhibition of rat calcium channel L type at benzothiazepine site at 10 uM
[31] = Clearance in rat at 10 mg/kg, po and 1 mg/kg, iv; format: ADME, organism-based; settings: in vivo

T1 sequence (P51685 whole entry): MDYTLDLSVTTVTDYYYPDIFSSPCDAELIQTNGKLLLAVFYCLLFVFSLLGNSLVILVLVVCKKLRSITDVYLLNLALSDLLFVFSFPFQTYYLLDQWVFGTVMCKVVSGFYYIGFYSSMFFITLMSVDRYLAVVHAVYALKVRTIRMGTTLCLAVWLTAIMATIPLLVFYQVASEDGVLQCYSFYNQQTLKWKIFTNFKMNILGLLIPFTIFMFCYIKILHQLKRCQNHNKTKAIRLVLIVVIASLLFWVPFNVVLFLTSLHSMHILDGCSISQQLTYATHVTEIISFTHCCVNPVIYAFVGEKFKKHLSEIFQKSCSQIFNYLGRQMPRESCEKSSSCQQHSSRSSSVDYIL
Chain of Beta-1 adrenergic receptor (Homo sapiens) (P08588 whole entry, looked up): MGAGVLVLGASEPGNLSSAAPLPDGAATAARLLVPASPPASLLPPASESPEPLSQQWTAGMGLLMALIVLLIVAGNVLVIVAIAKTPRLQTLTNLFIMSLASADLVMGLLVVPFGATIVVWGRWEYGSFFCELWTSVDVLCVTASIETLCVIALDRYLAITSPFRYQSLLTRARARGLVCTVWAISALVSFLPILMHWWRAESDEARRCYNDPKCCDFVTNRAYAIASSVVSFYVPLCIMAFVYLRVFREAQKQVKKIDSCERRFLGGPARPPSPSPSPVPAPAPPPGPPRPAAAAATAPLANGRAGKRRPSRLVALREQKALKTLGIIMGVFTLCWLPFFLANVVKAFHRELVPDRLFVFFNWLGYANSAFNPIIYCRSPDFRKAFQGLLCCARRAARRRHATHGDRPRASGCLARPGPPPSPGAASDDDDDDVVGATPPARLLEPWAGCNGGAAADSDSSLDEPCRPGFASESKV
Chain of 5-hydroxytryptamine receptor 2A (Homo sapiens) (P28223 whole entry): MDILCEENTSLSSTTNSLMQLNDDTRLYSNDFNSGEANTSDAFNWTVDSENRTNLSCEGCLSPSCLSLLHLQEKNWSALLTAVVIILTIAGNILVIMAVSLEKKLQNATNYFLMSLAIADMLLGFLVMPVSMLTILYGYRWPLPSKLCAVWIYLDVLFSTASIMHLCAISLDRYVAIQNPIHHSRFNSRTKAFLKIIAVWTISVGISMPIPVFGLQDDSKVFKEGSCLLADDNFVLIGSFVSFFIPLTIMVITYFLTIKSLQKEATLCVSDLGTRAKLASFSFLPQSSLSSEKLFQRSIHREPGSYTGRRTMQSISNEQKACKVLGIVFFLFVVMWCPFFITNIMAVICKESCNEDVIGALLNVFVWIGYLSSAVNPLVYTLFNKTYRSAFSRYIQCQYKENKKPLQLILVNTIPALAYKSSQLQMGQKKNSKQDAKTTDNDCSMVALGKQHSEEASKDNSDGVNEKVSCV
Chain of D(1A) dopamine receptor (Homo sapiens) (P21728 whole entry): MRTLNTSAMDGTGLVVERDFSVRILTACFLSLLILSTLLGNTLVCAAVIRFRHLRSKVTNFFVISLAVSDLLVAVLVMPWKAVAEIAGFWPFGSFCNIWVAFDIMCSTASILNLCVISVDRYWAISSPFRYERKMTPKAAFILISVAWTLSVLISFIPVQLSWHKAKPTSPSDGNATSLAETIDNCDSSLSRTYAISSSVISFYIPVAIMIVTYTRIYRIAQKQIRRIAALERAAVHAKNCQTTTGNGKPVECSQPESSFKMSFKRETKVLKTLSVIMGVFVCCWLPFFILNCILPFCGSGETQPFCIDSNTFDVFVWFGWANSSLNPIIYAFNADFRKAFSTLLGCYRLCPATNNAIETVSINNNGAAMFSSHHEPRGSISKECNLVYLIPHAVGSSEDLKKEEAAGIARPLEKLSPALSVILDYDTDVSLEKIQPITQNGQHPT
Chain of Sodium-dependent dopamine transporter (Rattus norvegicus) (P23977 whole entry): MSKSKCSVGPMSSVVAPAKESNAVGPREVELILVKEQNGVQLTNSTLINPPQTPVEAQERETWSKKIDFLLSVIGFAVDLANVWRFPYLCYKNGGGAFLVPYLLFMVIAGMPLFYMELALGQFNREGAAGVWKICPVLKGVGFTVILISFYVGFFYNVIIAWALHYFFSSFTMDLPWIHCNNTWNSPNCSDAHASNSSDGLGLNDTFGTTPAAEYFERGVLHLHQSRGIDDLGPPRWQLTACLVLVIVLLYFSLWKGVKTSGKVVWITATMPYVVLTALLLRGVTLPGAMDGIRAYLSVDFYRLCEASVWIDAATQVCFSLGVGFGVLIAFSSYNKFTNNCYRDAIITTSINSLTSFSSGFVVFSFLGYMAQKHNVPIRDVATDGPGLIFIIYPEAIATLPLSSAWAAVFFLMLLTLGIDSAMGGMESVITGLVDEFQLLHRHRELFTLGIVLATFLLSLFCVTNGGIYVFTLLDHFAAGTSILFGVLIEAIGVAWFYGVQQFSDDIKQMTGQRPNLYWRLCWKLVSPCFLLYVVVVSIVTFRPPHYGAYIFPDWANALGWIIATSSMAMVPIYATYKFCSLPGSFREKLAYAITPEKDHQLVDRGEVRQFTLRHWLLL
Chain of Cytochrome P450 3A4 (P08684 whole entry): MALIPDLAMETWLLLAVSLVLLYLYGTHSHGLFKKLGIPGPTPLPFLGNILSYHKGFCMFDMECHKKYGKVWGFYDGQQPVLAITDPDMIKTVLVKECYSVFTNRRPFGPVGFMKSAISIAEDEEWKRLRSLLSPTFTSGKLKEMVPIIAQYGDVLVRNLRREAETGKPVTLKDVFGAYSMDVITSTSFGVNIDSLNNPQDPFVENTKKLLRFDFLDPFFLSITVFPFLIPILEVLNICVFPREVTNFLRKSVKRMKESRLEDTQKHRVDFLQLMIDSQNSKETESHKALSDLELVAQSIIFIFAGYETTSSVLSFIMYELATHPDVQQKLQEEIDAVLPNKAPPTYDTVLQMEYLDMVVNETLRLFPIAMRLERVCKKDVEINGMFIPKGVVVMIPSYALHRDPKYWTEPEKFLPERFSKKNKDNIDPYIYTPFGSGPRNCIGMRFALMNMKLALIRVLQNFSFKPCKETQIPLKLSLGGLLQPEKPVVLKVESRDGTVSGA
Chain of Beta-2 adrenergic receptor (Homo sapiens) (P07550 whole entry, looked up): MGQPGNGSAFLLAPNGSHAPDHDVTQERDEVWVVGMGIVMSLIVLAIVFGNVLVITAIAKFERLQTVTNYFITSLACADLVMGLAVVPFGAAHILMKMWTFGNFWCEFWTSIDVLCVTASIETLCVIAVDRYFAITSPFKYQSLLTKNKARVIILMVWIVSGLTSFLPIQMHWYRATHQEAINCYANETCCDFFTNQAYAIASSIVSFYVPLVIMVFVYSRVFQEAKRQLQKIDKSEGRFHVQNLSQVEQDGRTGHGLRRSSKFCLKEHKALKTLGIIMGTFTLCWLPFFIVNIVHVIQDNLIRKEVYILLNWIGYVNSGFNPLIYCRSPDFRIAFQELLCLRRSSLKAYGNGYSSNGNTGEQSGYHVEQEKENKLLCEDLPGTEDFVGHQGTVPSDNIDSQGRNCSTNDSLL
Chain of Voltage-gated inwardly rectifying potassium channel KCNH2 (Q12809 whole entry): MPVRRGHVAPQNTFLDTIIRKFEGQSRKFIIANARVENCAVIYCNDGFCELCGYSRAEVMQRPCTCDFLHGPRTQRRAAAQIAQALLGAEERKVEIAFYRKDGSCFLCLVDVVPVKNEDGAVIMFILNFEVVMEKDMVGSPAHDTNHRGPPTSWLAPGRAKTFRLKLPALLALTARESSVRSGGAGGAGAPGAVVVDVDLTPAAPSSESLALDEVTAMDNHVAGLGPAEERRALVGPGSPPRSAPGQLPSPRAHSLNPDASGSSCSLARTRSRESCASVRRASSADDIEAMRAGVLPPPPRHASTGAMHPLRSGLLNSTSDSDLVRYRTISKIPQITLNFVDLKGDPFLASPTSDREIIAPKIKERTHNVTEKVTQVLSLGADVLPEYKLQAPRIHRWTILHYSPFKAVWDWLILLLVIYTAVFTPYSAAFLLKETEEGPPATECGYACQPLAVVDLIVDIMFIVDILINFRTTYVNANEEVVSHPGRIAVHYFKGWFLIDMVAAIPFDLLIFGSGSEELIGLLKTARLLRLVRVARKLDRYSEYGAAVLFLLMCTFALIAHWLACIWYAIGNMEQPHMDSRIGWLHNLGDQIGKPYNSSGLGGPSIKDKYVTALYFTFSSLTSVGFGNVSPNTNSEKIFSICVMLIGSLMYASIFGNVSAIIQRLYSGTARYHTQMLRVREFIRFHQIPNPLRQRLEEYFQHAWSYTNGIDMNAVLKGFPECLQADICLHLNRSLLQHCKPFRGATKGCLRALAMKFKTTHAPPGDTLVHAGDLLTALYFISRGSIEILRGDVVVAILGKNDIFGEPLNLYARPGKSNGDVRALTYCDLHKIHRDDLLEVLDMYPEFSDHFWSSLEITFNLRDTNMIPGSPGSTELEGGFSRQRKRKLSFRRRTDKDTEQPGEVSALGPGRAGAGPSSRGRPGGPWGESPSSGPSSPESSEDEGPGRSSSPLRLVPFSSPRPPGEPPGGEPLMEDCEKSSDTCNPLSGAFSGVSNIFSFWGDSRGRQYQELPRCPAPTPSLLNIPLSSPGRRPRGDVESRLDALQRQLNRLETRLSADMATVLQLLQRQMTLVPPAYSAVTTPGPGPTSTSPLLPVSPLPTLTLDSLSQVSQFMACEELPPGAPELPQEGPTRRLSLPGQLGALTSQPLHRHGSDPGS
Chain of 5-hydroxytryptamine receptor 1B (Homo sapiens) (P28222 whole entry): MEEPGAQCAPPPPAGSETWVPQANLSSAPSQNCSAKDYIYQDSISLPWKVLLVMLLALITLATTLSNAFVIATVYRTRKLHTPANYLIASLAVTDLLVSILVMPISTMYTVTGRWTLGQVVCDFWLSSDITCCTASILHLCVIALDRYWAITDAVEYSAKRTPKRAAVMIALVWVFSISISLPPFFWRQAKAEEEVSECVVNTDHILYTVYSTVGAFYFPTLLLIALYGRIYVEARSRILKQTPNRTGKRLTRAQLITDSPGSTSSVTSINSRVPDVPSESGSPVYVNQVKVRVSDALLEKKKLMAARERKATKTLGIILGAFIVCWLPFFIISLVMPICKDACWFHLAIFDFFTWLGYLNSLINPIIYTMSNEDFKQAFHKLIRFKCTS

Structure (SMILES): COc1ccc(NS(=O)(=O)c2ccc(NC(=O)c3ccccc3)c3ccccc23)cc1
IC50 [1]: 150 nM | Ki [2]: 42.6 nM

Structure (SMILES): CCCC(=O)N1CCC(NS(=O)(=O)c2ccc(NC(=O)c3ccccc3C)c3ccccc23)CC1
Papp A→B [3]: 25 ×10⁻⁶ cm/s | CLint scaled [4]: 51.7 mL/min/kg | efflux ratio [5]: 1.3 | Papp B→A [6]: 34 ×10⁻⁶ cm/s | IC50 [1]: 0.3 nM | Ki [2]: 0.3 nM

Structure (SMILES): Cc1ccccc1C(=O)Nc1ccc(S(=O)(=O)NC2CCN(C(=O)OCCCN3CC(C)OC(C)C3)CC2)c2ccccc12 (stereo not drawn)
IC50 [1]: 19.6 nM

Structure (SMILES): CCCC(=O)N1CCC(NS(=O)(=O)c2ccc(NC(=O)c3ccc(C)cc3)c3ccccc23)CC1
IC50 [1]: 9.5 nM

Continued by falling Ki [2], values first:

Papp A→B [3]: 1.9 ×10⁻⁶ cm/s | CLint scaled [4]: 46.7 mL/min/kg | Papp B→A [6]: 22 ×10⁻⁶ cm/s | Ki [2]: 2.2 nM
Structure (SMILES): CCNC(=O)N1CCC(NS(=O)(=O)c2ccc(NC(=O)c3ccccc3C)c3ccccc23)CC1
efflux ratio [5]: 11

Papp A→B [3]: 17 ×10⁻⁶ cm/s | inhibition [8]: 12% | inhibition [9]: 10.5% | Vd [10]: 1.6 L/kg | CLint scaled [4]: 95 mL/min/kg | half-life [7]: 8.2 h | inhibition [11]: 21.5% | inhibition (Rattus norvegicus [12]): 5.81% | bioavailability [13]: 10% | inhibition [14]: 9.16% | Papp B→A [6]: 24 ×10⁻⁶ cm/s | IC50 (Cytochrome P450 3A4): > 10000 nM | inhibition [15]: 15.6% | inhibition [16]: 18.4% | half-life [17]: 3.7 h | inhibition [18]: -8.21% | inhibition [19]: -1.01% | inhibition [20]: 2.44% | Ki [2]: 1.6 nM | Vd [21]: 1.5 L/kg | inhibition [23]: -9.19% | inhibition (Rattus norvegicus [24]): 21.4% | inhibition [25]: 7.13% | inhibition [26]: -5.14% | clearance [27]: 7 mL/min/kg | half-life [28]: 2.6 h | bioavailability [29]: 2% | inhibition (Rattus norvegicus [30]): 10.2% | clearance [31]: 23.3 mL/min/kg
Structure (SMILES): CCOC(=O)N1CCC(NS(=O)(=O)c2ccc(NC(=O)c3ccccc3C)c3ccccc23)CC1
efflux ratio [5]: 1.4 | Ki [22]: > 10000 nM

half-life [7]: 0.5 h | Ki [2]: 0.17 nM
Structure (SMILES): CCOC(=O)N1CCC(NS(=O)(=O)c2ccc(NC(=O)c3ccccc3)c3ccccc23)CC1
